# From patent publication US20220218695A1, “COMBINATION OF AN ALPHA2-ADRENOCEPTOR SUBTYPE C (ALPHA-2C) ANTAGONISTS WITH A TASK1/3 CHANNEL BLOCKER FOR THE TREATMENT OF SLEEP APNEA” (Bayer Aktiengesellschaft, priority 2019, published 2022)
# Test system: upper airway collapsibility in anaesthetized, spontaneously breathing pigs
# Experiment: pig model of obstructive sleep apnea (OSA): upper airway collapsibility under negative pressure
# Format: in vivo, German Landrace pigs
# Description: The therapeutic potential of the combination of an α2-Adrenoceptor subtype C (alpha-2C) antagonists with a TASK1/3 channel blocker according to the present invention in sleep apnea can be assessed preclinically in a pig model of obstructive sleep apnea (OSA).
# Using negative pressure, it is possible to induce collapse and thus obstruction of the upper respiratory tract in anaesthetized, spontaneously breathing pigs (Wirth K. J. et al., Sleep 36(5)(2013) pp. 699-708).
# German Landrace pigs are used for the model. The pigs are anaesthetized and tracheotomized. Two tracheal cannulas are inserted into the trachea, one into the rostral part and the other into the caudal part of the trachea. Using a connection piece, the rostral cannula is connected to a tube to the negative pressure device and to the distal tracheal cannula. The distal tracheal cannula is additionally connected to a tube with an open end to atmosphere via a connection piece that served for free tracheal breathing, circumventing the upper airway. By appropriate opening and clamping of those tubes breathing can be switched from nasal breathing to breathing through the caudal tracheal cannula, circumventing the upper airway, and the (isolated) upper airway can be connected to the negative pressure device, causing airflow in the inspiratory direction.
# At certain points in time, the collapsibility of the upper respiratory tract is tested by having the pig breathe via the caudal cannula and applying negative pressures of −50, −100 and −150 cm water head (cm H2O) to the upper respiratory tract. This causes the upper respiratory tract to collapse, which manifests itself in an interruption of the airflow and a pressure drop in the tube system. This test is conducted prior to the administration of the test substance and at certain intervals after the administration of the test substance. An appropriately effective test substance can prevent this collapse of the respiratory tract in the inspiratory phase.
# [1] = alpha-2C antagonist alone, 90 min after bolus injection […] and start of infusion 0.005 μg/kg/h
# [2] = 0 min (time point of i.v. bolus […] and start of infusion 0.005 μg/kg/h; baseline)
# [3] = 30 min after i.v. bolus […] and start of infusion 0.005 μg/kg/h, alpha-2C antagonist alone
# [4] = 60 min after i.v. bolus […] and start of infusion 0.005 μg/kg/h, alpha-2C antagonist alone
# [5] = 90 min after i.v. bolus […] and start of infusion 0.005 μg/kg/h, time point of nasal application of TASK1/3 channel blocker
# [6] = 0 min (time point of intranasal administration of 0.3 μg; baseline), TASK1/3 blocker alone
# [7] = 10 min after intranasal administration of 0.3 μg, TASK1/3 blocker alone
# [8] = 30 min after intranasal administration of 0.3 μg, TASK1/3 blocker alone
# [9] = 60 min after intranasal administration of 0.3 μg, TASK1/3 blocker alone
structure (smiles),measurement,setting,value
"COC[C@@]1(C)CCCN2CCc3c(oc4ccccc34)[C@@H]21 [(1S,12bS)-1-(methoxymethyl)-1-methyl-1,3,4,6,7,12b-hexahydro-2H-[1]benzofuro[2,3-a]quinolizine]",upper airway collapsibility at negative pressures of −50 cm head (cm H2O),[1],only inhibited
same,upper airway collapsibility at negative pressures of −100 and −150 cm head (cm H2O),[1],induced
same,effectiveness of dose on upper airway collapsibility,"alpha-2C antagonist alone, i.v. bolus […] + infusion 0.005 μg/kg/h",non effective dose
same,"inhibited upper airway collapsibility at all negative pressures of −50, −100 and −150 cm head (cm H2O)","alpha-2C antagonist alone, i.v. bolus […] followed by i.v. infusion 0.005 μg/kg/h for four hours",at no time point
same,"Percent pigs without collaps −50 cm H2O, %",[2],0%
same,"Percent pigs without collaps −50 cm H2O, %",[3],0%
same,"Percent pigs without collaps −50 cm H2O, %",[4],100%
same,"Percent pigs without collaps −50 cm H2O, %",[5],100%
same,"Percent pigs without collaps −100 cm H2O, %",[2],0%
same,"Percent pigs without collaps −100 cm H2O, %",[3],0%
same,"Percent pigs without collaps −100 cm H2O, %",[4],0%
same,"Percent pigs without collaps −100 cm H2O, %",[5],0%
same,"Percent pigs without collaps −150 cm H2O, %",[2],0%
same,"Percent pigs without collaps −150 cm H2O, %",[3],0%
same,"Percent pigs without collaps −150 cm H2O, %",[4],0%
same,"Percent pigs without collaps −150 cm H2O, %",[5],0%
"COc1cccc(C(=O)N2CCN(Cc3c(-c4ccc(Cl)cc4)nc4ccccn34)CC2)n1 [(4-{[2-(4-Chlorophenyl)imidazo[1,2-a]pyridin-3-yl]methyl}piperazin-1-yl)(6-methoxypyridin-2-yl)methanone]",effectiveness of dose on upper airway collapsibility,"TASK1/TASK3 channel blocker alone, 0.3 μg intranasal",non effective dose
same,"Percent pigs without collaps −50 cm H2O, %",[6],0%
same,"Percent pigs without collaps −50 cm H2O, %",[7],0%
same,"Percent pigs without collaps −50 cm H2O, %",[8],0%
same,"Percent pigs without collaps −50 cm H2O, %",[9],0%
same,"Percent pigs without collaps −100 cm H2O, %",[6],0%
same,"Percent pigs without collaps −100 cm H2O, %",[7],0%
same,"Percent pigs without collaps −100 cm H2O, %",[8],0%
same,"Percent pigs without collaps −100 cm H2O, %",[9],0%
same,"Percent pigs without collaps −150 cm H2O, %",[6],0%
same,"Percent pigs without collaps −150 cm H2O, %",[7],0%
same,"Percent pigs without collaps −150 cm H2O, %",[8],0%
same,"Percent pigs without collaps −150 cm H2O, %",[9],0%
